Calls of active or inactive are those of the source. The rule behind the calls is not given here.
Experiments:
[1] = biological target: Platelet-derived growth factor receptor (Homo sapiens) (UniProt P09619+P16234); test: PDGF Ligand binding assay; type: protein-complex assay; conditions: Compound concentration 10.0 uM
[2] = biological target: Atrial natriuretic peptide receptor 1 (Homo sapiens) (UniProt P16066); test: ANP Ligand binding assay; conditions: Compound concentration 10.0 uM
[3] = biological target: Calcium/calmodulin-dependent protein kinase type 1B (Homo sapiens, UniProt Q6P2M8); test: Inhibition of PNCK at compound concentration of 10.0 uM using the ScanMax (DiscoverX)
[4] = biological target: Calcitonin-gene-related peptide receptor, CALCRL/RAMP1 (Homo sapiens) (UniProt O60894+Q16602); test: CGRP (h) Ligand binding assay; type: protein-complex assay; conditions: Compound concentration 10.0 uM
[5] = biological target: 5-hydroxytryptamine receptor 6 (Homo sapiens) (UniProt P50406); test: 5-HT6 (h) Ligand binding assay; conditions: Compound concentration 10.0 uM
[6] = biological target: Gastrin/cholecystokinin type B receptor (Homo sapiens) (UniProt P32239); test: CCKB (h) Ligand binding assay; conditions: Compound concentration 10.0 uM
[7] = biological target: Somatostatin receptor (Homo sapiens) (UniProt P35346+P30874+P31391+P30872+P32745); test: Somatostatin Ligand binding assay; type: protein assay; conditions: Compound concentration 10.0 uM
[8] = biological target: Cholecystokinin receptor type A (Homo sapiens) (UniProt P32238); test: CCKA (h) Ligand binding assay; conditions: Compound concentration 10.0 uM
[9] = biological target: 5-hydroxytryptamine receptor 5A (Homo sapiens) (UniProt P47898); test: 5-HT5A (h) Ligand binding assay; conditions: Compound concentration 10.0 uM
[10] = biological target: Histamine H1 receptor (Homo sapiens, UniProt P35367); test: GPCRScan assay: inhibition of H1; set-up: radioligand conc. used [nm] 0.6 – 2.0, parental cells stable HEK
[11] = biological target: Vasopressin V1a receptor (Homo sapiens) (UniProt P37288); test: V1a (h) Ligand binding assay; conditions: Compound concentration 10.0 uM
[12] = biological target: T1, Muscarinic acetylcholine receptor M1 (Homo sapiens) (UniProt P11229); test: M1 (h) Ligand binding assay; conditions: Compound concentration 10.0 uM
T1 sequence (whole entry): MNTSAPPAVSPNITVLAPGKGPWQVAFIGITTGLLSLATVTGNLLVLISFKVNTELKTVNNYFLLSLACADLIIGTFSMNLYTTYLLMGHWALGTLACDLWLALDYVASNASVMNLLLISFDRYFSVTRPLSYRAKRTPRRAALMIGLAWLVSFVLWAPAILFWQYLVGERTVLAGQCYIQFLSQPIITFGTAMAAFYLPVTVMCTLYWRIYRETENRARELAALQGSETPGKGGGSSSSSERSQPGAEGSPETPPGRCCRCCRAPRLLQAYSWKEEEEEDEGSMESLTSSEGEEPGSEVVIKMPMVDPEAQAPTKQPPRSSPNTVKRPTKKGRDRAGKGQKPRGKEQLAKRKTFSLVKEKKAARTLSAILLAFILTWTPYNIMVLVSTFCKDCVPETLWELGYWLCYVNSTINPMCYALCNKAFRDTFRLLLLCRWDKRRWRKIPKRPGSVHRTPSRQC

[13] = biological target: 5-hydroxytryptamine receptor 7 (Homo sapiens) (UniProt P34969); test: 5-HT7 (h) Ligand binding assay; conditions: Compound concentration 10.0 uM
[14] = biological target: Vasoactive intestinal polypeptide receptor 1 (Homo sapiens) (UniProt P32241); test: VIP1 (h) Ligand binding assay
[15] = biological target: Neuropeptide Y receptor type 1 (Homo sapiens) (UniProt P25929); test: Y1 (h) Ligand binding assay; conditions: Compound concentration 10.0 uM
[16] = biological target: D(3) dopamine receptor (Homo sapiens) (UniProt P35462); test: D3 (h) Ligand binding assay; conditions: Compound concentration 10.0 uM
[17] = biological target: D(1A) dopamine receptor (Homo sapiens) (UniProt P21728); test: D1 (h) Ligand binding assay; conditions: Compound concentration 10.0 uM
[18] = Immunoblot method to monitor prenylation inhibition of Ras; set-up: species or system Homo sapiens
[19] = biological target: GABA-A receptor; anion channel (Homo sapiens) (UniProt P14867+P47870+P18507+P28472+P48169+Q99928+Q9UN88+P34903+O00591+O14764+Q8N1C3+P18505+P78334+P47869+P31644+Q16445); test: BZD (central) Ligand binding assay; type: protein-complex assay; conditions: Compound concentration 10.0 uM
[20] = biological target: Endothelin receptor type B (Homo sapiens) (UniProt P24530); test: ETB (h) Ligand binding assay; conditions: Compound concentration 10.0 uM
[21] = biological target: Type-2 angiotensin II receptor (Homo sapiens) (UniProt P50052); test: AT2 (h) Ligand binding assay; conditions: Compound concentration 10.0 uM
[22] = biological target: Neuropeptide Y receptor type 2 (Homo sapiens) (UniProt P49146); test: Y2 (h) Ligand binding assay; conditions: Compound concentration 10.0 uM
[23] = biological target: Homeodomain-interacting protein kinase 2 (Homo sapiens, UniProt Q9H2X6); test: Inhibition of HIPK2 at compound concentration of 10.0 uM using the ScanMax (DiscoverX)

Sequence of Vasoactive intestinal polypeptide receptor 1 (Homo sapiens) (P32241 whole entry): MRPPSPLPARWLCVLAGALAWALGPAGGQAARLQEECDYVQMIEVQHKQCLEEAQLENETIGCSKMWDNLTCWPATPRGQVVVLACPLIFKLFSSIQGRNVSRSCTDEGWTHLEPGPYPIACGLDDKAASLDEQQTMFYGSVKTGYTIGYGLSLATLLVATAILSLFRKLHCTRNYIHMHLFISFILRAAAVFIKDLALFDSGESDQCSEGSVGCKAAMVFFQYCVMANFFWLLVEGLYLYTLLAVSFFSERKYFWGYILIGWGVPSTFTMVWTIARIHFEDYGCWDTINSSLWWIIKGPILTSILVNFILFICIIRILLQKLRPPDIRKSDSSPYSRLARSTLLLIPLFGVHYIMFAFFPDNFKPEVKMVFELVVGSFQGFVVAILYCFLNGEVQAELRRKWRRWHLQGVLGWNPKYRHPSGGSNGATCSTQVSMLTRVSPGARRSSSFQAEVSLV
Sequence of Type-2 angiotensin II receptor (Homo sapiens) (P50052 whole entry): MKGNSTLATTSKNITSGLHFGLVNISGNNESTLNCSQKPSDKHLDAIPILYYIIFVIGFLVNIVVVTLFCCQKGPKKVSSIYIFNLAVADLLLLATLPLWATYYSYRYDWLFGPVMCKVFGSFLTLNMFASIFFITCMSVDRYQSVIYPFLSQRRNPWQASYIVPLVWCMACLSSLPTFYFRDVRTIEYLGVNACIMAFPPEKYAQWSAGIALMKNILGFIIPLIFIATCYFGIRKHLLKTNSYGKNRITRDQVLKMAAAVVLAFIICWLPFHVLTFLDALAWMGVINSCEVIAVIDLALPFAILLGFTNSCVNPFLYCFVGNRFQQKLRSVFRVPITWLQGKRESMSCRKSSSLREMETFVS
Sequence of Calcium/calmodulin-dependent protein kinase type 1B (Q6P2M8 whole entry): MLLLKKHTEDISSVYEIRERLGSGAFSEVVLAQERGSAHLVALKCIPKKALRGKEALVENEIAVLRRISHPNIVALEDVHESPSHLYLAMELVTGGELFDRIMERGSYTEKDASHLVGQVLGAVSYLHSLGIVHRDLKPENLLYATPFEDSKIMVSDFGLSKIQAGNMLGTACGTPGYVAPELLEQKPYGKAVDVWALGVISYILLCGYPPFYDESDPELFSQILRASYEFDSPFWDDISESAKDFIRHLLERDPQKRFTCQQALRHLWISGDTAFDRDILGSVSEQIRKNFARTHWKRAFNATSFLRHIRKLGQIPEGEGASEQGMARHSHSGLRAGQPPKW
Sequence of Atrial natriuretic peptide receptor 1 (Homo sapiens) (P16066 whole entry, looked up): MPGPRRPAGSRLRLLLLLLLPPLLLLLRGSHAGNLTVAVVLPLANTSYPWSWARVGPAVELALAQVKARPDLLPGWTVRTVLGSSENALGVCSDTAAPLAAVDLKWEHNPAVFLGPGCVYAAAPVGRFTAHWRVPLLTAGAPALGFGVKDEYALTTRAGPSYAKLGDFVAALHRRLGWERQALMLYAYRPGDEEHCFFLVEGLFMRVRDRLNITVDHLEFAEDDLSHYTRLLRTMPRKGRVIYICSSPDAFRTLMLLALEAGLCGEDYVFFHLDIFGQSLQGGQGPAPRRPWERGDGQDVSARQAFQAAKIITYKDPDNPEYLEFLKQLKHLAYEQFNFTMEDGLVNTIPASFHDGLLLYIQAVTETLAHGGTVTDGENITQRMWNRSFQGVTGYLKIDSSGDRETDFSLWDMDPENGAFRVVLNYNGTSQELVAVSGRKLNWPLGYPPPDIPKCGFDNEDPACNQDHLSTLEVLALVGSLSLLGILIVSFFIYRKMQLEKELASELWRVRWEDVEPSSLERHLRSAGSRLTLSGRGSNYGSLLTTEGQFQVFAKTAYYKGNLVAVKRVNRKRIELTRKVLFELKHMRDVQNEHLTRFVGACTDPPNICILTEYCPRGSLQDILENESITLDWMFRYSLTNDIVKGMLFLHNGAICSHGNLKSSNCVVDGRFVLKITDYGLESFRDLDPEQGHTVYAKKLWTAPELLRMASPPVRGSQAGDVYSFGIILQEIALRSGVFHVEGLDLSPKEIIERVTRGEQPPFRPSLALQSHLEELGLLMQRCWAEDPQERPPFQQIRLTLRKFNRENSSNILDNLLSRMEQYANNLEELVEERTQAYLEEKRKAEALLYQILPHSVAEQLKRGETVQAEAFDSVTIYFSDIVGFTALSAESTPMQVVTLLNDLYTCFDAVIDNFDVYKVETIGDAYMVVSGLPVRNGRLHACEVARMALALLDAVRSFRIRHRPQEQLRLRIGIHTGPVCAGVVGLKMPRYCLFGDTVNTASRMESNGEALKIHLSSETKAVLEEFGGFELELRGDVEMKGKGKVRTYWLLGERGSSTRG
Sequence of Vasopressin V1a receptor (Homo sapiens) (P37288 whole entry, looked up): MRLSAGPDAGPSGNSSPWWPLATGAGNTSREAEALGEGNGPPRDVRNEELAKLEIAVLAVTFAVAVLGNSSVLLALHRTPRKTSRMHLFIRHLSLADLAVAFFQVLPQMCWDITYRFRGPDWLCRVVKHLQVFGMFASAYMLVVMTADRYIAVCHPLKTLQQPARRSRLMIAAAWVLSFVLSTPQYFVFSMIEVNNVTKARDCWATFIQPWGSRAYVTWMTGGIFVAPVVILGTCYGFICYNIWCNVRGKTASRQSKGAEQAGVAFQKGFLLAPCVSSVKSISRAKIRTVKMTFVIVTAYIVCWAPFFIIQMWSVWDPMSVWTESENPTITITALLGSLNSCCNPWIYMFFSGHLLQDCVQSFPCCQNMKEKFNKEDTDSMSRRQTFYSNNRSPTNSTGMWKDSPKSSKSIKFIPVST
Sequence of Neuropeptide Y receptor type 2 (Homo sapiens) (P49146 whole entry): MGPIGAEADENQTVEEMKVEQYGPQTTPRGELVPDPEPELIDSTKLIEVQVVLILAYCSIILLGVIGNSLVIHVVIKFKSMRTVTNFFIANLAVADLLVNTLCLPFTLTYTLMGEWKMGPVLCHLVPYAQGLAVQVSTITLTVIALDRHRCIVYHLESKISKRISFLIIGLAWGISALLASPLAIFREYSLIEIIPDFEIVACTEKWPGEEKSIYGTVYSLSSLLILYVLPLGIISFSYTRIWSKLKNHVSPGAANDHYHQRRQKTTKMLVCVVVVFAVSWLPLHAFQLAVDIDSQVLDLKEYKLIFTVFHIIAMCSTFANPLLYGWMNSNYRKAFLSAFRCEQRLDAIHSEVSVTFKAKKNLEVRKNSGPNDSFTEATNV
Sequence of Histamine H1 receptor (P35367 whole entry): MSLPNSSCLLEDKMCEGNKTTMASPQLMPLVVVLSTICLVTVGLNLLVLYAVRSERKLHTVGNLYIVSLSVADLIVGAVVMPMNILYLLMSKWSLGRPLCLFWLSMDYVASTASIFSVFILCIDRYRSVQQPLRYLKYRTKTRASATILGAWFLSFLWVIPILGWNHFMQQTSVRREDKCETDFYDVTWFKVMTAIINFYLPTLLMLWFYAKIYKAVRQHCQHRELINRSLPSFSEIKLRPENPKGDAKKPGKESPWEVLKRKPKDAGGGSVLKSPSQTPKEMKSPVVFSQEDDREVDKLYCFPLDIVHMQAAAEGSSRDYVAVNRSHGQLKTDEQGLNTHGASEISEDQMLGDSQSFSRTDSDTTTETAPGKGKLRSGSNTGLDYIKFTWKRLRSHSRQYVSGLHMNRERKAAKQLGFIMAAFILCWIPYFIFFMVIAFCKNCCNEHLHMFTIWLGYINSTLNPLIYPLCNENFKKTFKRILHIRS
Sequence of 5-hydroxytryptamine receptor 7 (Homo sapiens) (P34969 whole entry): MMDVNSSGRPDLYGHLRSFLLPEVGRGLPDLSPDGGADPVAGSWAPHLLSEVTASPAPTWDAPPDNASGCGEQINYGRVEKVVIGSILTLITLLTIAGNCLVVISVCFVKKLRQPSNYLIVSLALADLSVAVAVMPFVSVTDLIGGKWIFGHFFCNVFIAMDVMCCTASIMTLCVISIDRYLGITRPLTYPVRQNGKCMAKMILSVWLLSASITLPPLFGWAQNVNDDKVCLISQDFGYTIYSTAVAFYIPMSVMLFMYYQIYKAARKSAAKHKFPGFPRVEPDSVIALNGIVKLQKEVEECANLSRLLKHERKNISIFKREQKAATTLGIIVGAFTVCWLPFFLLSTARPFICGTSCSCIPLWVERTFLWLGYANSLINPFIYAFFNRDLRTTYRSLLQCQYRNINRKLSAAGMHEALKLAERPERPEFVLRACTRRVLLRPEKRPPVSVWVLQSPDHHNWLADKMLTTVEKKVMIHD
Sequence of D(1A) dopamine receptor (Homo sapiens) (P21728 whole entry): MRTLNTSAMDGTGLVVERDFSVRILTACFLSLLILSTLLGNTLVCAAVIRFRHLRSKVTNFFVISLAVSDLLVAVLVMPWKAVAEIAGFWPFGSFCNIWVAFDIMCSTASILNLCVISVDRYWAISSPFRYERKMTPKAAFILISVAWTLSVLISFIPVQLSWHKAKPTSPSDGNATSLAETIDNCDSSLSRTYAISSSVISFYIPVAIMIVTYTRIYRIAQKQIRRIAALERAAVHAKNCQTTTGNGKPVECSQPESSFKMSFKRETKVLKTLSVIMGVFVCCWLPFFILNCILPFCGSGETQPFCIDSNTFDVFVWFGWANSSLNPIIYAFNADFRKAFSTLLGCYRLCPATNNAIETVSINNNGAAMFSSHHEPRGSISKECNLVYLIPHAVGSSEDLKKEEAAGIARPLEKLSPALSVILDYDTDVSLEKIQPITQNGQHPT
Sequence of Endothelin receptor type B (Homo sapiens) (P24530 whole entry): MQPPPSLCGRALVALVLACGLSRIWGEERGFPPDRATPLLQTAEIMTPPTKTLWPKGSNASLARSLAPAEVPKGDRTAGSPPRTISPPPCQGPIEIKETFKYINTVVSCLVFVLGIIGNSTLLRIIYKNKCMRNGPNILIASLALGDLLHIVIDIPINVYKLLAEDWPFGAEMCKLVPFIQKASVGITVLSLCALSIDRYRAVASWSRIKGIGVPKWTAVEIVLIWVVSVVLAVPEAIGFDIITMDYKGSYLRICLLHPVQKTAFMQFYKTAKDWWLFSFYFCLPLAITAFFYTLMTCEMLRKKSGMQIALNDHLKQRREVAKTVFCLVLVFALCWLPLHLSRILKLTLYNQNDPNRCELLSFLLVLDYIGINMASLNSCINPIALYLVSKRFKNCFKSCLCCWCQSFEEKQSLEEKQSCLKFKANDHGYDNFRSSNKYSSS

For `Cn1cncc1[C@](O)(COc1ccc(C#N)cc1-c1ccc(OC(F)(F)F)cc1)c1ccc(C#N)cc1` [ABT-100], the inhibition [1] was less than 10%, the inhibition [2] was less than 10% and the Kd [3] was > 10 µM (not active). The inhibition [4] was less than 10%, the inhibition [5] was less than 10% and the inhibition [6] was less than 10%. It also gave an inhibition [7] of 13%, an inhibition [8] of less than 10% and an inhibition [9] of 30%. The Ki [10] was 10 µM, the inhibition [11] was less than 10% and the inhibition [12] was less than 10%. The inhibition [13] was 22%, the inhibition ([14]; Compound concentration 0.3 uM) was 23% and the inhibition ([14]; Compound concentration 10.0 uM) was 60%. It also gave an inhibition [15] of less than 10%, an inhibition [16] of 36% and an inhibition [17] of 31%. The EC50 [18] was 0.00073 µM (active), the inhibition [19] was less than 10% and the inhibition [20] was 21%. The inhibition [21] was less than 10%, the inhibition [22] was less than 10% and the Kd [23] was > 10 µM (not active).
